Results from US7595333B2, “Agent for improving acidosis” (priority 1999, dated 2009).
Counter-ions that a name gives are not always drawn.

How the values were obtained:
[1] = tested on: Wistar fatty rats; assay: Effect on diabetic ketosis in Wistar fatty rats (total ketone bodies in plasma); type: in vivo, rat; details: for concentration of total ketone bodies in plasma: Wistar fatty rats (31 week-old, male), pioglitazone hydrochloride 1 mg/kg body weight/day orally for 14 days, mean ± SD, n=6, control without Pio 170.23 ± 22.33 μM
Description: For instance, diabetic ketosis is observed in a Wistar fatty rat which is an animal model of non-insulin dependent (type 2) diabetes mellitus. Therefore, a ketosis improving action of a test compound can be evaluated by comparing concentration of total ketone bodies in plasma between Wistar fatty rat groups with administration of a test compound (Experimental group) and Wistar fatty rat groups without administration of a test compound (Control group). […] 3-Hydroxybutyric acid (3-HB) in samples is specifically oxidized by 3-hydroxybutyric acid dehydrogenase (3-HBDH) in the presence of an oxidized form of β-thionicotinamide adenine dinucleotide (thio-NAD) to produce acetoacetic acid (AcAc) and a reduced form of β-thionicotinamide adenine dinucleotide (thio-NADH). […] Effects of an insulin sensitizer (pioglitazone hydrochloride) on diabetic ketosis in Wistar fatty rats, animal models of non-insulin dependent diabetes mellitus (NIDDM), were studied. First, Wistar fatty rats (31 week-old, male) were divided into two groups each consisting of 6 rats. […] After administration, blood was collected from the tail vein of the Wistar fatty rats, and total ketone bodies in the plasma were enzymatically determined by using AutoWako total ketone bodies (Trade name)(Wako Pure Chemical Industries, Ltd., Japan) and Hitachi 7070 Autoanalyzing machine. Wistar lean rats (6 rats), animal models of non diabetes mellitus (normal), were orally administered with a 0.5 (w/v) % aqueous methylcellulose solution for 14 days. Then, total ketone bodies in the plasma were determined in the same manner as above. In the table, W, lean, W. fatty and Pio mean Wistar lean rat, Wistar fatty rat and pioglitazone hydrochloride, respectively. Figures in the table represent means ± standard deviation (number of subjects=6).

[2] = tested on: Wistar fatty rats; assay: Effect on ketosis caused by a biguanide (metformin) in Wistar fatty rats (total ketone bodies in plasma); type: in vivo, rat; details: for concentration of total ketone bodies, higher as compared with Group A (without metformin and pioglitazone hydrochloride) / concentration of total ketone bodies in plasma: metformin 300 mg/kg/day; for concentration of total ketone bodies, higher as compared with Group A (without metformin and pioglitazone hydrochloride): difference of means; for concentration of total ketone bodies in plasma: Wistar fatty rats, pioglitazone hydrochloride 1 mg/kg/day, mean ± SD, n=6
Description: 3-Hydroxybutyric acid (3-HB) in samples is specifically oxidized by 3-hydroxybutyric acid dehydrogenase (3-HBDH) in the presence of an oxidized form of β-thionicotinamide adenine dinucleotide (thio-NAD) to produce acetoacetic acid (AcAc) and a reduced form of β-thionicotinamide adenine dinucleotide (thio-NADH). […] The concentration of total ketone bodies which is the sum of 3-HB and AcAc in samples can be calculated by determining a production speed of thio-NADH thus obtained.
Effects of an insulin sensitizer (pioglitazone hydrochloride) on ketosis caused by a biguanide (metformin) in Wistar fatty rats, NIDDM models, were studied.
First, Wistar fatty rats (31 week-old, male) were divided into three groups, namely Groups A, B and C, each consisting of 6 rats. […] After administration, blood was collected from the tail vein of the Wistar fatty rats, and total ketone bodies in the plasma were determined in the same manner as in Experimental Example 1.
In the table, W. fatty. Met and Pio mean Wistar fatty rat, metformin and pioglitazone hydrochloride, respectively. Figures in the table represent means ± standard deviation (number of subjects=6).
The concentration of total ketone bodies in plasma of Wistar fatty rats was determined in the same manner as in Experimental Example 2 except that the administration period was changed from 14 days to 7 days.

Structure (SMILES)	concentration of total ketone bodies in plasma [1] [µM]	concentration of total ketone bodies in plasma ([1]; listed as Pio) [µM]	effect on diabetic ketosis (conclusion in words) ([1]; Wistar fatty rats, 1 mg/kg/day orally, 14 days)	concentration of total ketone bodies, lower as compared with the group without pioglitazone hydrochloride ([1]; Wistar fatty rats, 1 mg/kg/day orally, 14 days, difference of means) [µM]	effect on ketosis caused by a biguanide (conclusion in words) ([2]; Experimental Examples 2 and 3 (14 and 7 days))	concentration of total ketone bodies, higher as compared with Group A (without metformin and pioglitazone hydrochloride) ([2]; 7 days) [µM]	concentration of total ketone bodies, higher as compared with Group A (without metformin and pioglitazone hydrochloride) ([2]; 14 days) [µM]	concentration of total ketone bodies in plasma ([2]; 7 days orally, Group A control 160.37 ± 14.00 μM) [µM]	concentration of total ketone bodies in plasma ([2]; 7 days orally, Group A control 160.37 ± 14.00 μM, listed as Met) [µM]	concentration of total ketone bodies in plasma ([2]; 14 days orally, Group A control 170.23 ± 22.33 μM) [µM]	concentration of total ketone bodies in plasma ([2]; 14 days orally, Group A control 170.23 ± 22.33 μM, listed as Met) [µM]
CCc1ccc(CCOc2ccc(CC3SC(=O)NC3=O)cc2)nc1 (centres unmarked) [pioglitazone hydrochloride, 5-[4-[2-(5-ethyl-2-pyridyl)ethoxy]benzyl]-2,4-thiazolidinedione]	125.72 ± 12.49	125.72 ± 12.49	improves diabetic ketosis	44.51	improves ketosis caused by a biguanide (metformin)	–	–	–	–	–	–
CN(C)C(=N)N=C(N)N [metformin]	–	–	–	–	–	38.86	11.77	199.23 ± 55.69	199.23 ± 55.69	182.00 ± 22.50	182.00 ± 22.50
